Reference: patent publication EP4653444A1, “FUSED TRICYCLIC COMPOUND AS KINASE INHIBITOR” (Hangzhou Innogate Pharma Co., Ltd., priority 2023, dated 2024)
Like-named read-outs stand apart in the source and are kept apart here.

Legend:
ULK1 kinase = biological target: T1, ULK1 kinase (Homo sapiens, UniProt O75385); assay: ULK kinase activity inhibition assay (ADP-Glo); type: biochemical
T1 sequence (O75385 1-1050): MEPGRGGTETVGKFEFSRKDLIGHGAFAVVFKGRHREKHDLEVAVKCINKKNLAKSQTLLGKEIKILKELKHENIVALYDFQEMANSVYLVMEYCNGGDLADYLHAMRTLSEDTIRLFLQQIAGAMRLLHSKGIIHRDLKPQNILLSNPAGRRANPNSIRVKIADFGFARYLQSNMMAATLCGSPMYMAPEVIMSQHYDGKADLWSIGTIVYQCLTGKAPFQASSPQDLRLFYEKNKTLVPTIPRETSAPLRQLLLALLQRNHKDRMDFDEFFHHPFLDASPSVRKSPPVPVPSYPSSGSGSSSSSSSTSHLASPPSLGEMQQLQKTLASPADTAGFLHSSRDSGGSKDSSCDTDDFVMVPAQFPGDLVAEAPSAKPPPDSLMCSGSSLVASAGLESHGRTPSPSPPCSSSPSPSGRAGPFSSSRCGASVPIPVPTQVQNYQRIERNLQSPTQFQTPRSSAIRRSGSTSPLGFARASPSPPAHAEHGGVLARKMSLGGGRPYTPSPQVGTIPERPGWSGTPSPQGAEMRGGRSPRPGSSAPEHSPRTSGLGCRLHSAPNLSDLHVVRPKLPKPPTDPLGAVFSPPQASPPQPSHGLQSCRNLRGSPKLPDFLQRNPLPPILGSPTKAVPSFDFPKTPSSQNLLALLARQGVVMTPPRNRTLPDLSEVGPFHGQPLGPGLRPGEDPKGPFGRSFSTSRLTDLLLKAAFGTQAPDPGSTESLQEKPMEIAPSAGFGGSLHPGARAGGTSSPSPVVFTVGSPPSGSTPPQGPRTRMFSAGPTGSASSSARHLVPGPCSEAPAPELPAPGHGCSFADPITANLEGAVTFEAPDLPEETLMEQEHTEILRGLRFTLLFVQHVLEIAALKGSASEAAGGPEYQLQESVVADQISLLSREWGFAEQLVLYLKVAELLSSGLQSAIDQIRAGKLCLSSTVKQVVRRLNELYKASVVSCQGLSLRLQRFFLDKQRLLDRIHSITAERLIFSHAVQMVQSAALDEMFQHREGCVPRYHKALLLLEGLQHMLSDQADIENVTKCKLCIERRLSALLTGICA
Procedure: (§1) The ADP-Glo method was used to evaluate the inhibitory activity of the compounds against ULK1 and ULK2 kinases. Prepare 1× kinase reaction buffer (final working concentrations: HEPES 50 mM, MgCl2 10 mM, Brij35 0.01%, EGTA 1 mM, DTT 2 mM). Prepare 2× kinase and […] substrate solutions: ULK1 kinase at 0.5 nM; substrate mix containing ATP at 100 µM and MBP at 0.1 mg/mL. ULK2 kinase at 0.15 nM; substrate mix containing ATP at 6 µM and MBP at 0.1 mg/mL. Compounds were serially diluted in DMSO and shaken on a shaker for 20 minutes. Prepare 2× kinase using 1× kinase reaction buffer. Transfer 20 nL of compound into a 384-well plate. Add 2 µL of kinase to each well of the reaction plate. Seal the plate with sealing film, centrifuge at 1000 rpm for 60 seconds, and incubate at 25°C for 10 minutes. Prepare 2× ATP & MBP mixture using 1× kinase reaction buffer and add 2 µL to each well. Seal the plate, centrifuge at 1000 rpm for 60 seconds, and incubate at 25°C for 60 minutes. Add 4 µL ADP-Glo reagent to the 384-well plate, centrifuge at 1000 rpm for 1 minute, and incubate at 25°C for 40 minutes. Then, add 8 µL Detection Reagent, centrifuge at 1000 rpm for 1 minute, and incubate at 25°C for 40 minutes. Read the RLU (Relative Luminescence Unit) signal using a BMG plate reader to indicate kinase activity. Inhibition rate was calculated as: % Inhibition = 100% - [(Compound - Positive Control)/(Negative Control - Positive Control)] × 100%. IC50 values (half-maximal inhibitory concentration) were calculated by nonlinear regression using GraphPad Prism 7.0. Y = Bottom + (Top - Bottom)/(1 + 10^((LogIC50 - X) × Hill Slope)), where X is the log of compound concentration and Y is the % inhibition.

ULK2 kinase = biological target: T2, ULK2 kinase (Homo sapiens, UniProt Q8IYT8); assay: ULK kinase activity inhibition assay (ADP-Glo); type: biochemical
T2 sequence (Q8IYT8 1-1036): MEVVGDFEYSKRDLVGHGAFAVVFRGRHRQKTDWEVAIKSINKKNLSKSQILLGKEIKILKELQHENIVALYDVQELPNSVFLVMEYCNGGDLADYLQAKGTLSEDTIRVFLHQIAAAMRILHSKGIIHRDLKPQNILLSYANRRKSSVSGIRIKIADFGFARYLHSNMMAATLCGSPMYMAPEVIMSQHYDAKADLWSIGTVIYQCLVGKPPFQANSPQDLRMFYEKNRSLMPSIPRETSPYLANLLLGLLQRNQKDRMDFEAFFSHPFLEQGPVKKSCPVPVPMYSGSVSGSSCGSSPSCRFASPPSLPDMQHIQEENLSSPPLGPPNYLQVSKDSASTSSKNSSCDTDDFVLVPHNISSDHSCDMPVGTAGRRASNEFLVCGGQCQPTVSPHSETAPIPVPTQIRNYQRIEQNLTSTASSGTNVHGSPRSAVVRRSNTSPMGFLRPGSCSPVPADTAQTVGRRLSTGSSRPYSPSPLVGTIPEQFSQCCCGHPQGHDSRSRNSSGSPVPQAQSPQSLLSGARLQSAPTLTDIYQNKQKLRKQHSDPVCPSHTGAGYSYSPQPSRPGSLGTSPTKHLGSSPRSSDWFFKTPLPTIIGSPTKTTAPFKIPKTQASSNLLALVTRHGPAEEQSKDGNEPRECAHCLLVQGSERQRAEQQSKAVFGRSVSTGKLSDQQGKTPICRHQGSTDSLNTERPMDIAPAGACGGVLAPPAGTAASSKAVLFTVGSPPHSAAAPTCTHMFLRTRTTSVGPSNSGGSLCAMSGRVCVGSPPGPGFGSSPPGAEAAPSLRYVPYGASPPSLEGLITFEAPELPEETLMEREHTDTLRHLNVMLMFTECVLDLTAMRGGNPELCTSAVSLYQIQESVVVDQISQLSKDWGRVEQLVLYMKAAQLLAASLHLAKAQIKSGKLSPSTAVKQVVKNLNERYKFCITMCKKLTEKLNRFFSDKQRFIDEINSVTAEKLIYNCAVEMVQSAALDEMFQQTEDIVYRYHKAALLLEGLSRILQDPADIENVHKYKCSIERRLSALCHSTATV
Procedure: as §1

[1] = Pharmacokinetic study in rats; conditions: rat, plasma, po, 3 mg/kg
Procedure: Pharmacokinetic parameters were calculated by statistical moment method using WinNonLin 8.0 software, mainly including Tmax, T1/2, Cmax and AUC0-24h.
Animals: Three male SD rats weighing 200-220 g were used. After purchase, they were housed in the laboratory animal center for 2 days before experiment. […] Blood samples were collected at scheduled time points after oral gavage.
Vehicle: 0.4% ethanol + 0.4% Tween 80 + 99.2% (0.5% methylcellulose M450). Preparation of oral gavage solution: The compound was accurately weighed and dissolved in vehicle by ultrasonication for 5 min at room temperature to prepare 0.3 mg/mL drug solution.
Single compound administration was also used to study pharmacokinetics in rats.
Blood sample collection: After oral gavage, blood samples were collected from orbital sinus at 0.25, 0.5, 1, 2, 4, 8, 10 and 24 h. 50 µL plasma was mixed with 200 µL acetonitrile (containing 2 ng/mL verapamil as internal standard). The mixture was vortexed for 3 min, then centrifuged at 20000 rcf for 10 min at 4 °C. The supernatant was analyzed by LC-MS/MS.
Standard curves were established by accurately weighing and preparing compounds at different concentrations for mass spectrometric quantification. Compound concentrations in plasma samples were determined based on standard curves to obtain concentration-time profiles. All measurement data were collected and processed by relevant software. Pharmacokinetic parameters (including Tmax, T1/2, Cmax and AUC0-24h) were calculated by statistical moment method.

FAK kinase = FAK kinase (Homo sapiens, UniProt Q05397); assay: FAK kinase activity inhibition assay, method A (HTRF); type: biochemical
Procedure: The HTRF method was used to evaluate the inhibitory activity of the compounds against FAK kinase. […]. The reaction conditions were: FAK kinase at 0.1 ng/µL; ATP 10 µM; substrate concentration 1 µM. Compounds were serially diluted in DMSO and shaken on a shaker for 20 minutes. Prepare 2× kinase using 1× reaction buffer. Transfer 25 nL compound to a 384-well plate using Echo 655. Add 2.5 µL kinase per well. Seal the plate with sealing film, centrifuge at 1000 rpm for 60 seconds, and incubate at 25°C for 12 hours. Prepare 2× ATP/substrate mix using 1× enzyme reaction buffer and add 2.5 µL 2× ATP/substrate mix per well. Seal the plate with sealing film, centrifuge at 1000 rpm for 60 seconds, and incubate at 25°C for 50 minutes. Prepare 2×XL665 & antibody solution using HTRF detection buffer, and add 5 µL per well. Incubate at 25°C for 60 minutes. Read fluorescence at 620 nm (Cryptate) and 665 nm (XL665). Calculate the ratio per well (Ratio_665/620 nm). % Inhibition = 100% - [(Compound Ratio - Positive Control Ratio)/ (Negative Control Ratio - Positive Control Ratio)] × 100%. IC50 values (half-maximal inhibitory concentration) were calculated by nonlinear regression using GraphPad Prism 7.0. Y = Bottom + (Top - Bottom)/ (1 + 10^ ((LogIC50 - X) × Hill Slope)), where X is the log of compound concentration and Y is the % inhibition.

[2] = ADP-Glo, ATP 100 µM, read-out: ULK1 (IC50)
[3] = ADP-Glo, ATP 6 µM, read-out: ULK2 (IC50)

Sequence of FAK kinase (Q05397 whole entry): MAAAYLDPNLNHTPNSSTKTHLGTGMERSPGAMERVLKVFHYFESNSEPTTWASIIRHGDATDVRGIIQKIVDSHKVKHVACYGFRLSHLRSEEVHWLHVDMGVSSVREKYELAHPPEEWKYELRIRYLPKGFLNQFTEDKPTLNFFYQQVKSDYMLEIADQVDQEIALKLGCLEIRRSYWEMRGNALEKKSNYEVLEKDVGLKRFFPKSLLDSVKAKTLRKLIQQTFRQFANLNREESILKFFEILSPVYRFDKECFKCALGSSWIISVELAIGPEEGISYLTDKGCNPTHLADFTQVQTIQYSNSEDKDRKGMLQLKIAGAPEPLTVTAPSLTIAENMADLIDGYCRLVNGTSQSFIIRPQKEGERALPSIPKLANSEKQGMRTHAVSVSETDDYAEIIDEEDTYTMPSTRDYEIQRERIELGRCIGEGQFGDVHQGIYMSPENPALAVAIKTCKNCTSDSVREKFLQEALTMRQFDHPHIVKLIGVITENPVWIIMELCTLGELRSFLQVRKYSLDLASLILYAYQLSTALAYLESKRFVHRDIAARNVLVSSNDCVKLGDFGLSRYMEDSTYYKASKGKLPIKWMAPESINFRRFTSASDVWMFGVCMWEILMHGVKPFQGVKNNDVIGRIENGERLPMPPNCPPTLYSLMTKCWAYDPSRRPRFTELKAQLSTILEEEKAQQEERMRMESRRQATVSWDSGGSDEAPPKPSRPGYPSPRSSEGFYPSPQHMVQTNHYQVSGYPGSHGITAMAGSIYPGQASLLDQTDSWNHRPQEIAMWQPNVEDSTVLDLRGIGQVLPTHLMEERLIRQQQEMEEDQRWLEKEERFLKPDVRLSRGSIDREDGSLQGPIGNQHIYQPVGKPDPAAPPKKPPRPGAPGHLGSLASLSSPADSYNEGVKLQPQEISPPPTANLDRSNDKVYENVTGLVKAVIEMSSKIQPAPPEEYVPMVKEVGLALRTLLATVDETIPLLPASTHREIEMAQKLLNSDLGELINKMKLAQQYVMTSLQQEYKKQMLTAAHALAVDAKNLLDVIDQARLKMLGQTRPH

| Structure (SMILES) | IC50 (ULK1 kinase; [2]) | IC50 (ULK2 kinase; [3]) | AUC(0-t) at 24 h [1] | Cmax [1] | Tmax [1] | half-life [1] | IC50 (ULK1 kinase) | IC50 (ULK2 kinase) | IC50 (FAK kinase) |
| --- | --- | --- | --- | --- | --- | --- | --- | --- | --- |
| CCc1cc2c(cc1Nc1ncc(C(F)(F)F)c(NCCCN3CCOCCC3=O)n1)OC[C@H]1CN(C)CCN21 [Compound A1R] | < 3 nM | < 1 nM | 326 ng·h/mL | 74.2 ng/mL | 1.2 h | 1.5 h | – | – | – |
| CCc1cc2c(cc1Nc1ncc(C(F)(F)F)c(NCCCN3CCOCCC3=O)n1)OC[C@H]1CN(C3CCN(C)CC3)CCN21 [Compound A2R] | – | – | 1940 ng·h/mL | 149 ng/mL | 8 h | 8.8 h | < 3 nM | < 5 nM | – |
| CCc1cc2c(cc1Nc1ncc(C(F)(F)F)c(NCCCN3CCOCCC3=O)n1)OC[C@H]1CN(C3CCOCC3)CCN21 [Compound A3R] | – | – | 1040 ng·h/mL | 223 ng/mL | 1.2 h | 1.4 h | < 3 nM | < 1 nM | – |
| CCc1cc2c(cc1Nc1ncc(C(F)(F)F)c(NCCCN3CCOCCC3=O)n1)OC[C@H]1CNCCN21 [Compound A4R] | < 1 nM | < 1 nM | 880 ng·h/mL | 217 ng/mL | 1.2 h | 2.1 h | – | – | – |
| CCc1cc2c(cc1Nc1ncc(C(F)(F)F)c(NCCCN3CCCCC3=O)n1)OC[C@H]1CNCCN21 [Compound A5R] | < 1 nM | < 1 nM | – | – | – | – | – | – | – |
| CCc1cc2c(cc1Nc1ncc(C(F)(F)F)c(NCCCN3CCCCC3=O)n1)OC[C@H]1CN(C3CCN(C)CC3)CCN21 [Compound A6R] | – | – | 1080 ng·h/mL | 77.3 ng/mL | 6.7 h | 8.3 h | < 3 nM | < 5 nM | – |
| CCc1cc2c(cc1Nc1ncc(C(F)(F)F)c(NCCCN3CCCCC3=O)n1)OC[C@H]1CN(C3CCOCC3)CCN21 [Compound A7R] | – | – | – | – | – | – | < 3 nM | < 1 nM | – |
| CCc1cc2c(cc1Nc1ncc(C(F)(F)F)c(NCCCN3CCCCC3=O)n1)OC[C@H]1CN(C)CCN21 [Compound A8R] | < 1 nM | < 1 nM | 685 ng·h/mL | 222 ng/mL | 0.8 h | 1 h | – | – | – |
| CCN1CCN2c3cc(OC)c(Nc4ncc(C(F)(F)F)c(CCc5ccccc5CC(N)=O)n4)cc3OC[C@H]2C1 [Compound B5R] | – | – | 685 ng·h/mL | 118 ng/mL | 2 h | 2.8 h | – | – | < 0.5 nM |
| COc1cc2c(cc1Nc1ncc(C(F)(F)F)c(CCc3ccccc3CC(N)=O)n1)OC[C@H]1CN(C3CC3)CCN21 [Compound B6R] | – | – | 905 ng·h/mL | 299 ng/mL | 1 h | 1.3 h | – | – | < 1 nM |
| COc1cc2c(cc1Nc1ncc(C(F)(F)F)c(CCc3ccccc3CC(N)=O)n1)OC[C@H]1CN(C(C)=O)CCN21 [Compound B7R] | – | – | 1430 ng·h/mL | 390 ng/mL | 2 h | 1.2 h | – | – | < 0.5 nM |
| COc1cc2c(cc1Nc1ncc(C(F)(F)F)c(CCc3ccccc3CC(N)=O)n1)OC[C@H]1CN(S(C)(=O)=O)CCN21 [Compound B8R] | – | – | 133 ng·h/mL | 39.3 ng/mL | 1.7 h | 1.5 h | – | – | < 0.5 nM |
| COc1cc2c(cc1Nc1ncc(C(F)(F)F)c(CCc3ccccc3CC(N)=O)n1)OC[C@H]1CN(C3CN(C)C3)CCN21 [Compound B9R] | – | – | 368 ng·h/mL | 61.8 ng/mL | 3.3 h | 2.6 h | – | – | < 0.5 nM |
